From patent US9980928B2, “Hydroxy aliphatic substituted phenyl aminoalkyl ether derivatives” (PROUS INSTITUTE FOR BIOMEDICAL RESEARCH, S.A., priority 2012, dated 2018)
Entries after “also recorded” stand apart in the source; their conditions may differ.

Legend:
[1] = target: T1, norepinephrine (NE) transporter (Homo sapiens, UniProt P23975); experiment: Norepinephrine transporter binding radioligand inhibition ([3H]-nisoxetine); settings: concentration 5 μM
T1 construct: expressed in transfected cells; host or cells: CHO cells
Experimental: The norepinephrine (NE) transporter removes NE from the synaptic cleft. The NE transporter terminates the effects of […], enabling its reuse by the presynaptic neuron. The in vitro binding of the compounds of the invention to the NE transporter and the percent inhibition of control-specific binding ([^3H]-nisoxetine in human recombinant CHO cells) is determined following the method described in Pacholczyk et al., (Nature 1991, 350(6316): 350-4.

p-ERK = experiment: Western blot of p-ERK in mouse brain after i.p. administration; format: in vivo, mice; settings: 30 mg/kg i.p., hippocampus, 1 hour after administration; hydrochloride
Experimental: (§1) Acute biochemical neuronal changes in neurotrophin and synaptic plasticity signaling after the administration of the compounds to be tested may be studied by Western blot assessment of ERK, Akt, phospholipase C (PLC), Trk-B, […] and CAMK II phosphorylation assays in the hippocampus, striatum and cortex at 1 hour post-administration.
(§2) Two groups of animals were used: C57BL control mice and mice treated by i.p. administration of a dose of 30 mg/kg of the compound to be tested diluted in saline solution or control saline (n=6 per group).
(§3) Animals were sacrificed by cervical dislocation at the corresponding time and different brain regions were dissected (frontal cortex, striatum, hippocampus, cerebellum) after […] of having administered the compounds. […] The supernatants were collected and the protein concentration was measured using the Dc protein assay kit (Bio-Rad, Hercules, Calif., USA) read in a 96-well plate. […]
(§4) After primary antibody incubation, membranes were washed with TBS-T and incubated for 1 hour at room temperature with the appropriate horseradish peroxidase-conjugated secondary antibody (1:2000; Promega, Madison, Wis., USA), and the reaction was finally visualized with the Western Blotting Luminol Reagent (Santa Cruz Biotechnology, Santa Cruz, Calif., USA). Western blot replicates were scanned and quantified using a computer-assisted densitometric analysis.

CHO cells = experiment: In vitro MTT toxicity screen; format: cell-based, Chinese hamster; settings: 10 μM, compared to positive control group (10% DMSO)
Experimental: The toxicity of the compounds of the present invention at a concentration of 10 μM has been explored using the tetrazolium salt (MTT) method in CHO cells. The MTT method involving conversion of MTT to colored formazan by cells serves as an indirect measurement of cell growth/cell kill, as reported by several groups (Paimela, T. et al. Mol Vis 2012; 18: 1189-96; Hansen, M. B. et al. J Immunol Methods 1989, 119(2): 203-10).
In the MTT assay, cytotoxicity is correlated with the color of MTT and is measured with a spectrophotometer at the wavelength of 570 nm. Briefly, fresh MTT solution (10 mg/mL in 1×PBS) was added (1:20 volume of medium) and the cells were incubated for 1.5 hours. The cells were lysed and purple formazan was dissolved into the solution by overnight incubation with MTT lysis buffer (20% SDS, 50% N,N-dimethylformamide, 2% acetic acid, 25 mM HCl; the volume of medium+volume of MTT salt solution).

mice = experiment: Passive avoidance test; format: in vivo; settings: 30 mg/kg i.p., test phase 24 hours later
Source text: The passive avoidance task is a fear-aggravated test used to evaluate learning and memory in rodent models of CNS disorders. In this test, subjects learn to avoid an environment in which an aversive stimulus (such as a footshock) was previously delivered.
The animals can freely explore the light and dark compartments of the chamber and a mild footshock is delivered in one side of the compartment. Animals eventually learn to associate certain properties of the chamber with the footshock. The latency to pass the gate in order to avoid the stimulus is used as an indicator of learning and memory. The passive avoidance task is useful for evaluating the effect of novel chemical entities on learning and memory, as well as studying the mechanisms involved in cognition (Cappon, G. D. Eur J Pharmacol. 2008 579(1-3): 225-8).
A passive avoidance test with Example 2 administered i.p. at 30 mg/kg was conducted to assess the formation of recent and long-term memory (consolidation) using a negative reinforcement (0.6 mA footshock; 2 s).

p-Akt = experiment: Western blot of p-Akt in mouse brain after i.p. administration; format: in vivo, mice; settings: 30 mg/kg i.p., hippocampus, 1 hour after administration; hydrochloride
Experimental: as §1, §2, §3, §4

T1 sequence (P23975 whole entry): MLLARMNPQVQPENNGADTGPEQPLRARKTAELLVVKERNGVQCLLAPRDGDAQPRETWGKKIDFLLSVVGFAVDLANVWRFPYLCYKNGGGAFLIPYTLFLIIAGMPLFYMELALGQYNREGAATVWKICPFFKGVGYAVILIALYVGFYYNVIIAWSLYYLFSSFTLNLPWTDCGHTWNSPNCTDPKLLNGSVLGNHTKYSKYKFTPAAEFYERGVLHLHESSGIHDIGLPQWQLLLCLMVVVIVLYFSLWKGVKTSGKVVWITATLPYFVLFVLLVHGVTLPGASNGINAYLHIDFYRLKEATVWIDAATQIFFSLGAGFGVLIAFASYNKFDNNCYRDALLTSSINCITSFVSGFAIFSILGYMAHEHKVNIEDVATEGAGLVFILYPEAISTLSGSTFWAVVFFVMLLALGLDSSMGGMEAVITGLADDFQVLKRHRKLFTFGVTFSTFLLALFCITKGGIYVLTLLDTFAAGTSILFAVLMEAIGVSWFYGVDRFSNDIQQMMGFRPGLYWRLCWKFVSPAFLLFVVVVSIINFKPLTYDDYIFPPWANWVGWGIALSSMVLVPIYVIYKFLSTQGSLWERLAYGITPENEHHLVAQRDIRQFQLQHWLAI

## CNCCC(Oc1ccc(CCO)cc1)c1ccccc1.Cl (single isomer, unassigned) [Example 2, 2-[4-[3-(Methylamino)-1-phenylpropoxy]phenyl]ethanol hydrochloride]
[1]
  inhibition at 5 µM: 95%
p-ERK
  p-ERK levels (ERK1/2 phosphorylation): positive significant increase; also recorded: trend for an increase
CHO cells
  cell viability (MTT): 100%
mice
  time on the platform vs saline-treated group (recent memory formation): significantly longer time on the platform
p-Akt
  p-Akt levels (Akt phosphorylation): positive significant increase; also recorded: increase in Akt phosphorylation
